# Test results as given in article PMC10006169, “A phase I trial of LXS196, a protein kinase C (PKC) inhibitor, for metastatic uveal melanoma” (British Journal of Cancer, 2023).
# Where “and” joins values, the source holds several entries; their conditions need not be identical. Identical values can stand only once. Marks after values point to notes of the source that are not given here.
# System: patients with MUM
# Test: Grade ≥3 serious adverse events regardless of study drug relationship
# Assay type: in vivo, human
# Method: Routine safety assessments, including laboratory assessments, physical examinations, vital signs and electrocardiograms (ECGs), were conducted at regular intervals throughout the study and more frequently as needed following patient assessment by the treating physician. Adverse events (AEs) were assessed continuously according to the National Cancer Institute Common Terminology Criteria for Adverse Events (NCI-CTCAE) v4.03.
structure (smiles),measurement,setting,value
CC1(N)CCN(c2cccnc2NC(=O)c2nc(-c3ncccc3C(F)(F)F)cnc2N)CC1 [LXS196],Acute kidney injury SAE,100 mg QD,0 n (%)
same,Cellulitis SAE,100 mg QD,0 n (%)
same,Constipation SAE,100 mg QD,0 n (%)
same,Diarrhoea SAE,100 mg QD,0 n (%)
same,Eyelid bleeding SAE,100 mg QD,0 n (%)
same,Hepatic cytolysis SAE,100 mg QD,0 n (%)
same,Hepatic failure SAE,100 mg QD,0 n (%)
same,Hypotension SAE,100 mg QD,0 n (%)
same,Nausea SAE,100 mg QD,0 n (%)
same,Neutrophil count decreased SAE,100 mg QD,0 n (%)
same,Oedema peripheral SAE,100 mg QD,0 n (%)
same,Patients with ≥1 SAE,100 mg QD,0 n (%)
same,Pneumonia SAE,100 mg QD,0 n (%)
same,Rash pruritic SAE,100 mg QD,0 n (%)
same,Thrombocytopenia SAE,100 mg QD,0 n (%)
same,Vomiting SAE,100 mg QD,0 n (%)
same,Acute kidney injury SAE,200 mg BID,0 n (%)
same,Cellulitis SAE,200 mg BID,1 (16.7) n (%)
same,Constipation SAE,200 mg BID,0 n (%)
same,Diarrhoea SAE,200 mg BID,0 n (%)
same,Eyelid bleeding SAE,200 mg BID,0 n (%)
same,Hepatic cytolysis SAE,200 mg BID,0 n (%)
same,Hepatic failure SAE,200 mg BID,0 n (%)
same,Hypotension SAE,200 mg BID,0 n (%)
same,Nausea SAE,200 mg BID,0 n (%)
same,Neutrophil count decreased SAE,200 mg BID,0 n (%)
same,Oedema peripheral SAE,200 mg BID,0 n (%)
same,Patients with ≥1 SAE,200 mg BID,1 (16.7) n (%)
same,Pneumonia SAE,200 mg BID,0 n (%)
same,Rash pruritic SAE,200 mg BID,0 n (%)
same,Thrombocytopenia SAE,200 mg BID,0 n (%)
same,Vomiting SAE,200 mg BID,0 n (%)
same,Acute kidney injury SAE,200 mg QD,0 n (%)
same,Cellulitis SAE,200 mg QD,0 n (%)
same,Diarrhoea SAE,200 mg QD,0 n (%)
same,Eyelid bleeding SAE,200 mg QD,0 n (%)
same,Hepatic cytolysis SAE,200 mg QD,0 n (%)
same,Hepatic failure SAE,200 mg QD,0 n (%)
same,Hypotension SAE,200 mg QD,0 n (%)
same,Nausea SAE,200 mg QD,1 (25.0) n (%)
same,Neutrophil count decreased SAE,200 mg QD,0 n (%)
same,Oedema peripheral SAE,200 mg QD,0 n (%)
same,Patients with ≥1 SAE,200 mg QD,1 (25.0) n (%)
same,Pneumonia SAE,200 mg QD,1 (25.0) n (%)
same,Rash pruritic SAE,200 mg QD,0 n (%)
same,Thrombocytopenia SAE,200 mg QD,0 n (%)
same,Vomiting SAE,200 mg QD,1 (25.0) n (%)
same,Acute kidney injury SAE,300 mg BID (RDE),1 (5.6) n (%)
same,Cellulitis SAE,300 mg BID (RDE),0 n (%)
same,Constipation SAE,300 mg BID (RDE),0 n (%)
same,Diarrhoea SAE,300 mg BID (RDE),0 n (%)
same,Eyelid bleeding SAE,300 mg BID (RDE),1 (5.6) n (%)
same,Hepatic cytolysis SAE,300 mg BID (RDE),1 (5.6) n (%)
same,Hepatic failure SAE,300 mg BID (RDE),1 (5.6) n (%)
same,Hypotension SAE,300 mg BID (RDE),0 n (%)
same,Nausea SAE,300 mg BID (RDE),0 n (%)
same,Neutrophil count decreased SAE,300 mg BID (RDE),1 (5.6) n (%)
same,Oedema peripheral SAE,300 mg BID (RDE),1 (5.6) n (%)
same,Patients with ≥1 SAE,300 mg BID (RDE),5 (27.8) n (%)
same,Pneumonia SAE,300 mg BID (RDE),1 (5.6) n (%)
same,Rash pruritic SAE,300 mg BID (RDE),1 (5.6) n (%)
same,Thrombocytopenia SAE,300 mg BID (RDE),1 (5.6) n (%)
same,Vomiting SAE,300 mg BID (RDE),0 n (%)
same,Acute kidney injury SAE,300 mg QD,0 n (%)
same,Cellulitis SAE,300 mg QD,0 n (%)
same,Constipation SAE,300 mg QD,0 n (%)
same,Diarrhoea SAE,300 mg QD,0 n (%)
same,Eyelid bleeding SAE,300 mg QD,0 n (%)
same,Hepatic cytolysis SAE,300 mg QD,0 n (%)
same,Hepatic failure SAE,300 mg QD,0 n (%)
same,Hypotension SAE,300 mg QD,0 n (%)
same,Nausea SAE,300 mg QD,0 n (%)
same,Neutrophil count decreased SAE,300 mg QD,0 n (%)
same,Oedema peripheral SAE,300 mg QD,0 n (%)
same,Patients with ≥1 SAE,300 mg QD,0 n (%)
same,Pneumonia SAE,300 mg QD,0 n (%)
same,Rash pruritic SAE,300 mg QD,0 n (%)
same,Thrombocytopenia SAE,300 mg QD,0 n (%)
same,Vomiting SAE,300 mg QD,0 n (%)
same,Acute kidney injury SAE,400 mg BID,0 n (%)
same,Cellulitis SAE,400 mg BID,0 n (%)
same,Constipation SAE,400 mg BID,0 n (%)
same,Diarrhoea SAE,400 mg BID,0 n (%)
same,Eyelid bleeding SAE,400 mg BID,0 n (%)
same,Hepatic cytolysis SAE,400 mg BID,0 n (%)
same,Hepatic failure SAE,400 mg BID,0 n (%)
same,Hypotension SAE,400 mg BID,1 (16.7) n (%)
same,Nausea SAE,400 mg BID,0 n (%)
same,Neutrophil count decreased SAE,400 mg BID,0 n (%)
same,Oedema peripheral SAE,400 mg BID,0 n (%)
same,Patients with ≥1 SAE,400 mg BID,1 (16.7) n (%)
same,Pneumonia SAE,400 mg BID,0 n (%)
same,Rash pruritic SAE,400 mg BID,0 n (%)
same,Thrombocytopenia SAE,400 mg BID,0 n (%)
same,Vomiting SAE,400 mg BID,0 n (%)
same,Acute kidney injury SAE,500 mg QD,0 n (%)
same,Cellulitis SAE,500 mg QD,0 n (%)
same,Constipation SAE,500 mg QD,0 n (%)
same,Diarrhoea SAE,500 mg QD,0^b n (%)
same,Eyelid bleeding SAE,500 mg QD,0 n (%)
same,Hepatic cytolysis SAE,500 mg QD,0 n (%)
same,Hepatic failure SAE,500 mg QD,0 n (%)
same,Hypotension SAE,500 mg QD,3 (27.3) n (%)
same,Nausea SAE,500 mg QD,0 n (%)
same,Neutrophil count decreased SAE,500 mg QD,0 n (%)
same,Oedema peripheral SAE,500 mg QD,0 n (%)
same,Patients with ≥1 SAE,500 mg QD,3 (27.3) n (%)
same,Pneumonia SAE,500 mg QD,0 n (%)
same,Rash pruritic SAE,500 mg QD,0 n (%)
same,Thrombocytopenia SAE,500 mg QD,0 n (%)
same,Vomiting SAE,500 mg QD,0 n (%)
same,Acute kidney injury SAE,800 mg QD,0 n (%)
same,Cellulitis SAE,800 mg QD,0 n (%)
same,Constipation SAE,800 mg QD,0 n (%)
same,Diarrhoea SAE,800 mg QD,0 n (%)
same,Eyelid bleeding SAE,800 mg QD,0 n (%)
same,Hepatic cytolysis SAE,800 mg QD,0 n (%)
same,Hepatic failure SAE,800 mg QD,0 n (%)
same,Hypotension SAE,800 mg QD,1 (100) n (%)
same,Nausea SAE,800 mg QD,0 n (%)
same,Neutrophil count decreased SAE,800 mg QD,0 n (%)
same,Oedema peripheral SAE,800 mg QD,0 n (%)
same,Patients with ≥1 SAE,800 mg QD,1 (100) n (%)
same,Pneumonia SAE,800 mg QD,0 n (%)
same,Rash pruritic SAE,800 mg QD,0 n (%)
same,Thrombocytopenia SAE,800 mg QD,0 n (%)
same,Vomiting SAE,800 mg QD,0 n (%)
same,Acute kidney injury SAE,1000 mg QD,0 n (%)
same,Cellulitis SAE,1000 mg QD,0 n (%)
same,Constipation SAE,1000 mg QD,0 n (%)
same,Diarrhoea SAE,1000 mg QD,0 n (%)
same,Eyelid bleeding SAE,1000 mg QD,0 n (%)
same,Hepatic cytolysis SAE,1000 mg QD,0 n (%)
same,Hepatic failure SAE,1000 mg QD,0 n (%)
same,Hypotension SAE,1000 mg QD,1 (25.0) n (%)
same,Nausea SAE,1000 mg QD,0 n (%)
same,Neutrophil count decreased SAE,1000 mg QD,0 n (%)
same,Oedema peripheral SAE,1000 mg QD,0 n (%)
same,Patients with ≥1 SAE,1000 mg QD,2 (50.0) n (%)
same,Pneumonia SAE,1000 mg QD,1 (25.0) n (%)
same,Rash pruritic SAE,1000 mg QD,0 n (%)
same,Thrombocytopenia SAE,1000 mg QD,0 n (%)
same,Vomiting SAE,1000 mg QD,0 n (%)
same,Acute kidney injury SAE,All BID,1 (3.3) n (%)
same,Cellulitis SAE,All BID,1 (3.3) n (%)
same,Constipation SAE,All BID,0 n (%)
same,Diarrhoea SAE,All BID,0 n (%)
same,Eyelid bleeding SAE,All BID,1 (3.3) n (%)
same,Hepatic cytolysis SAE,All BID,1 (3.3) n (%)
same,Hepatic failure SAE,All BID,1 (3.3) n (%)
same,Hypotension SAE,All BID,1 (3.3) n (%)
same,Nausea SAE,All BID,0 n (%)
same,Neutrophil count decreased SAE,All BID,1 (3.3) n (%)
same,Oedema peripheral SAE,All BID,1 (3.3) n (%)
same,Patients with ≥1 SAE,All BID,7 (23.3) n (%)
same,Pneumonia SAE,All BID,1 (3.3) n (%)
same,Rash pruritic SAE,All BID,1 (3.3) n (%)
same,Thrombocytopenia SAE,All BID,1 (3.3) n (%)
same,Vomiting SAE,All BID,0 n (%)
same,Acute kidney injury SAE,All QD,0 n (%)
same,Cellulitis SAE,All QD,0 n (%)
same,Constipation SAE,All QD,0^b n (%)
same,Diarrhoea SAE,All QD,0^b n (%)
same,Eyelid bleeding SAE,All QD,0 n (%)
same,Hepatic cytolysis SAE,All QD,0 n (%)
same,Hepatic failure SAE,All QD,0 n (%)
same,Hypotension SAE,All QD,5 (13.2) n (%)
same,Nausea SAE,All QD,1 (2.6) n (%)
same,Neutrophil count decreased SAE,All QD,0 n (%)
same,Oedema peripheral SAE,All QD,0 n (%)
same,Patients with ≥1 SAE,All QD,7 (18.4) n (%)
same,Pneumonia SAE,All QD,2 (5.3) n (%)
same,Rash pruritic SAE,All QD,0 n (%)
same,Thrombocytopenia SAE,All QD,0 n (%)
same,Vomiting SAE,All QD,1 (2.6) n (%)
same,Acute kidney injury SAE,All patients,1 (1.5) n (%)
same,Cellulitis SAE,All patients,1 (1.5) n (%)
same,Constipation SAE,All patients,0^b n (%)
same,Diarrhoea SAE,All patients,0^b n (%)
same,Eyelid bleeding SAE,All patients,1 (1.5) n (%)
same,Hepatic cytolysis SAE,All patients,1 (1.5) n (%)
same,Hepatic failure SAE,All patients,1 (1.5) n (%)
same,Hypotension SAE,All patients,6 (8.8) n (%)
same,Nausea SAE,All patients,1 (1.5) n (%)
same,Neutrophil count decreased SAE,All patients,1 (1.5) n (%)
same,Oedema peripheral SAE,All patients,1 (1.5) n (%)
same,Patients with ≥1 SAE,All patients,14 (20.6%) n (%) and 14 (20.6) n (%)
same,Pneumonia SAE,All patients,3 (4.4) n (%)
same,Rash pruritic SAE,All patients,1 (1.5) n (%)
same,Thrombocytopenia SAE,All patients,1 (1.5) n (%)
same,Vomiting SAE,All patients,1 (1.5) n (%)
